Drawing on a melting point compilation (Tetko et al.; mined from patent text by program, amines drawn as free bases though some values may be those of a salt), this text covers melting point for 90 molecules.

A word on the melting point: it is the temperature of the solid-liquid transition.

Structures are written as SMILES.

In turn, `CCCOc1ccc2c(c1)C(=O)C(C(=O)OC)=C2c1ccc2c(c1)OCO2` came in with a melting point of 125 to 126 °C.

The molecule `COC(=O)c1ccc(OC)c(NC(=N)c2ccc(F)cc2Cl)c1` registered a melting point of 120 °C. In turn, `CN(C)Cc1cccc(-c2csc(N=C(N)N)n2)n1` displayed a melting point of 160 to 162 °C.

Consider `CC1(COc2cccc(-c3noc4ccsc34)c2)CO1` (stereo not given), for which the melting point is 84 to 85 °C. The value for `COc1ccc(-n2c(N)nc3ccccc32)cc1-c1ccco1` was 218 to 221 °C; that for `O=C(NCCO[N+](=O)[O-])c1ccc(Br)o1` was 61 to 63 °C. `Nc1cncc(C(O)c2ccccc2)c1` (stereo not given) gave a melting point of 92 to 94 °C. The molecule `Cc1cc(Nc2ccnc(Nc3ccc(C(=O)N(C)C4CCCN(CCCC(F)(F)F)C4)cc3)n2)ccc1F` (stereo not given) registered a melting point of 100 to 110 °C. On to `Fc1ccc(-c2ncn(CCCOc3ccccc3)c2-c2ccncc2)cc1`, for which the melting point fell in the range of 95 to 96 °C.

`CCOC(=O)c1cc(CC)sc1Nc1ccc(F)cc1[N+](=O)[O-]`: the melting point came to 90 °C.

`O=S(=O)(Nc1cc(Br)nc(Br)c1)c1cccc(Cl)c1`: the melting point was 187 to 189 °C. `COc1ccc(CC(=O)c2c(O)c3cccnc3n(-c3ccccc3)c2=O)cc1` had a melting point of 190 to 192 °C. The same measure for `COC(=O)c1ccc(-c2ccc(OC)c(C(C)(C)C)c2)s1`: 94 to 95 °C; for `N#Cc1cccc(-c2cc(-c3ccccc3C(=O)O)on2)c1`: 195 to 196 °C. The value for `CCCC1=C(C#N)C(c2cccc(C)c2[N+](=O)[O-])c2c[nH]nc2N1` (stereo not given) was 250 °C; that for `O=C(NCCN1CCCCC1)c1ccc(=O)n(Cc2ccc(-c3ccccc3)cc2)c1` was 137 to 142 °C. For the molecule `CN(O)C(=O)C(=O)c1ccc(OCCOc2ccc3ccccc3c2)cc1`, the melting point was in the range of 161 to 165 °C. Turning to `CN1CCN(c2ccccc2C=C2CCN(c3ccc(C(F)(F)F)cc3)C2=O)CC1`, the melting point was 186 to 189 °C. `N#Cc1cccc(-c2cc(-c3ccc(C#N)cc3O[N+](=O)[O-])on2)c1` gave a melting point of 198 to 199 °C. The value for `CCOC(=O)N1CCCCN1C(=S)Cl` was 160 to 162 °C. As to `CCOC(=O)c1ccc(C(CCc2cc(Cl)ccc2N2CCCCC2)C(N)=O)cc1` (stereo not given), the melting point was 95 to 97 °C. The molecule `CCS(=O)c1cccc(-c2nc(=O)c3ccccc3s2)n1` (stereo not given) gave a melting point of 182 °C.

Consider `CCN(CC)C(=O)/C=C(\C)c1ccc(OC(C)c2ccccc2)c2oc(C(C)=O)cc12` (stereo not given), for which the melting point is 70.8 to 73 °C.

`CN(Cc1ccccc1)c1cc(=S)ss1` had a melting point of 138 to 140 °C. The value for `CC(=O)NC[C@H]1CN(c2ccc(N3CCSC3)c(F)c2)C(=O)O1` was 103 to 105 °C; that for `CO/N=C(/C(N)=O)c1ccccc1Oc1ccccc1` was 98 to 99 °C. The molecule `O=C(O)COc1ccc2c(-c3ccccc3Cl)noc2c1Cl` displayed a melting point of 165 to 168 °C. For `O=C(CC1CCCC1)Nc1ccc2cccc(O)c2c1`, the melting point is 162 to 165 °C. For the molecule `CCOC(=O)c1noc2ccccc12`, the melting point lay in the range of 53 to 55 °C. As to `CC(C#N)c1ccc(Cc2ccccc2CC#N)cc1` (stereo not given), the melting point was 61 to 64 °C. Turning to `CN(C)CCCN=C1CC(c2ccc(Cl)c(Cl)c2)Cc2c1c(=O)c1cc(Cl)ccc1n2O` (stereo not given), the melting point lay within 208 to 210 °C. Molecule `CC(C#N)(COc1ccc(Cl)cc1)S(=O)(=O)Cc1ccc(Cl)cc1` (stereo not given) showed a melting point of 119 to 120 °C.

`COC(=O)C(C)(Cc1ccc(Cl)nc1)C(=O)OC` yielded a melting point of 80 to 81 °C. As to `CCCN1N=C2C(=Cc3cccc(C(F)(F)F)c3)CSCC2C1c1cccc(C(F)(F)F)c1` (stereo not given), the melting point was 90 to 93.5 °C. In turn, `CC1(O)C=CC2C3CCC4=CC(=O)CCC4C3C(c3ccc(-c4ccc(C#N)cc4)cc3)CC21C` (stereo not given) had a melting point of 206 °C. `COC(=O)CC(=O)C=Cc1cc2ccccc2s1` showed a melting point of 105 to 107 °C. In turn, `CN(Cc1cccc(Cl)c1)c1ccc(C(=O)O)nc1` gave a melting point of 138 to 140 °C. The same measure for `COC(=O)C(CC(C)C)NC(=O)C(CC(C)C)NC(=O)OCc1ccccc1` (stereo not given): 80 to 82 °C; for `CN1C(C)(C)CC(O)C(O)C1(C)C` (stereo not given): 78 °C; for `O=S(=O)(c1ccccc1)C1CCCC2(C1)OCCO2` (stereo not given): 93 to 95 °C. The value for `Nc1cc(Br)nn1-c1c(Cl)cc(C(F)(F)F)cc1Cl` was 132 to 134 °C; that for `Cc1nc(C)c(C(=O)O)c(-c2ccccc2F)c1C(=O)O` was greater than 285 °C; that for `NC(=O)Cn1ccc(-c2ccc(Oc3ccc(F)cc3)cc2)n1` was 145 °C. Take `CC1=C(OC(=O)C(C)(C)C)C2=C(O)N(I)CN(OC(=O)C(C)(C)C)C2=N1`: the melting point came out at 155 °C.

`CN1CCN(c2cc(Cl)cc3c2c(=O)n(Cc2ccc(Cl)cc2)c(=O)n3Cc2ccccc2)CC1` yielded a melting point of 92 to 97 °C.

With `Cc1cccc(C(=O)N(C(=O)c2cccc(C)c2)c2nc3ccccc3c(NCc3ccccc3)c2C#N)c1`, the melting point came out at 234 °C. For `COc1ccc(Cn2nnnc2C(=O)Nc2cc(C(F)(F)F)cc(NC(=O)c3nnnn3Cc3ccc(OC)cc3)c2Cl)cc1`, the melting point was in the range of 185 to 186 °C. Molecule `Cc1ccc(Cl)cc1N1CCCN(CC(C)C)C1=S` had a melting point of 96 to 98 °C. As for `CSc1ccc2c(c1)C(O)Cc1ccc(C)cc1O2` (stereo not given), the melting point fell in the range of 67 to 69 °C.

The molecule `CCOC(=O)C=Cc1nc(-c2ccc(=O)n(C(C)C)n2)c(-c2ccccc2)nc1N` gave a melting point of 233 to 236 °C. In turn, `O=[N+]([O-])c1ccc(-c2ccc(C(O)CCl)o2)cc1` (stereo not given) showed a melting point of 111 to 113 °C. The same measure for `O=c1cc(-c2ccc(OCc3ccccc3)c(OCc3ccccc3)c2)oc2cc(OCC3CO3)ccc12` (stereo not given): 168 to 170 °C; for `Nc1nc(N)nc(CCC(Cl)(Cl)Cl)n1`: 187 to 188 °C; for `COc1cc(OC)c(NC(=O)C(c2ccccc2)n2nnc(C(c3ccccc3)c3ccccc3)n2)c(OC)c1` (stereo not given): 114 to 117 °C. The molecule `COCc1cnc2c(NC(=O)c3c(Cl)cccc3Cl)cccc2c1OCc1cccnc1` gave a melting point of 174 to 176 °C.

Molecule `O=C(C=CC(=O)OC(Cl)C(Cl)(Cl)Cl)OC(Cl)C(Cl)(Cl)Cl` (stereo not given) displayed a melting point of 144 °C.

Regarding `CCCCCCCCC#Cc1ccc2nc(C=O)ccc2c1`, the melting point lay in the range of 46.5 to 47.5 °C.

`CC12CCC3C4CCC(OCc5ccccc5)CC4CCC3C1C=CC2=O` (stereo not given) yielded a melting point of 119 to 120 °C. Regarding `O=C(Nc1cccc2cc(C(=O)O)[nH]c12)c1cc(OCc2ccccc2F)cc(OCc2ccccc2F)c1`, the melting point lay in the range of 271 to 273 °C.

In turn, `N=C(N)c1ccccc1-c1ccccc1` yielded a melting point of 148 to 150 °C. The molecule `O=C(O)c1cccc(CN2C(=O)N(c3ccccc3Br)Cc3cnc(Nc4ccccc4)nc32)c1` returned a melting point of 180 to 183 °C. Consider `COc1ccc2c(c1)CC(Nc1ccc(OCc3ccccc3)cc1)C2` (stereo not given), for which the melting point fell in the range of 55 to 57 °C. `N#Cc1c(N2CCCSCC2)cc[nH]c1=S` came in with a melting point of 265 to 270 °C. The molecule `CCOC1Nc2c(O)cccc2C(=O)N2CCCC12` (stereo not given) gave a melting point of 153 to 155 °C. The same measure for `CCOC(=O)c1ccc(NN2CN(Nc3ccc(C(=O)OCC)cc3)CN(Nc3ccc(C(=O)OCC)cc3)C2)cc1`: 218 to 223 °C.

Molecule `CC(C)Cn1nc(-c2ccc(C(F)(F)F)cc2)cc(CO)c1=O` gave a melting point of 146 °C.

`CCOC(=O)C1CCN(c2cc(-c3ccc(Cl)cc3)nc3ccccc23)CC1` showed a melting point of 124 to 126 °C. Molecule `O=C(O)CCCNCCC(=O)O` yielded a melting point of 148 to 151 °C. In the case of `Cc1ccccc1N(Cc1cccnc1)S(C)(=O)=O`, the melting point is 97 to 98 °C. As to `COc1ccc(C2=NN(C3CCN(C(=O)c4ccccc4OC)CC3)C(=O)C(C)(C)C2)cc1OC`, the melting point is 157 to 159 °C.

`CCOC(=O)C(=CNc1nncs1)C(=O)OCC`: the melting point was in the range of 107 to 111 °C. Regarding `CN(C)c1ccc(N2C(=O)C3Cc4[nH]cnc4CN3C2=S)cc1` (stereo not given), the melting point was 185 to 200 °C. Molecule `COc1ccc(-c2oc3cc(OC)cc(O)c3c(=O)c2OC)cc1` gave a melting point of 143 to 145 °C. In turn, `CC(C)(C)N(CC(O)CONC(=O)NC1CCCCC1)C(=O)NC1CCCCC1` (stereo not given) came in with a melting point of 151 to 152 °C. As to `CCOC(=O)c1c(Cl)c(Cl)c(Cl)c(Cl)c1C#N`, the melting point was in the range of 74 to 75 °C. In turn, `CN(C)c1nc2[nH]c3c(c(=O)n2n1)SCCC3` yielded a melting point of 130 °C.

For `O=S1(=O)N=C(Nc2ccccn2)Nc2ccc(Cl)cc21`, the melting point was greater than 310 °C.

Molecule `CC(C)C[C@H](NC(=O)CCc1ccccc1)C(=O)O` came in with a melting point of 129 to 130 °C. With `CCCC(=O)c1cnc2c(C)cccc2c1Nc1c(C)cccc1C`, the melting point was in the range of 100 to 101 °C. On to `COC(=O)NNC(=S)Cc1cccc(C(F)(F)F)c1`, for which the melting point was 131 to 132 °C. `O=C(c1ccc(-c2ccccc2)cc1)n1c2cc(O)c(O)cc2c2ccc(O)c(O)c21` returned a melting point of 291 to 294 °C. Molecule `CSc1ccc(-c2n[nH]c(C(F)(F)F)c2-c2ccc(F)cc2)cc1` displayed a melting point of 189 to 190 °C.

As for `CCOC(=O)C=C(NC(=O)Nc1cc(OC(C)C)c(Cl)cc1F)C(F)(F)F`, the melting point fell in the range of 144 to 146 °C.

In the case of `CCOc1ccc(O)cc1C=O`, the melting point lay in the range of 108 to 109 °C. The molecule `COc1cc(COc2nn(-c3ccccc3)cc2Cn2cncn2)ccc1OCc1nc(-c2ccco2)oc1C` displayed a melting point of 149 to 150 °C. With `O=C(NC(=O)C(c1ccccc1)c1ccccc1)OCc1ccccc1`, the melting point was in the range of 100 to 101 °C. The same measure for `CCC(Cc1cccc(NC(C)=O)c1)C(=O)O` (stereo not given): 131 to 132 °C.

With `COc1cc2cc(C=Cc3ccccc3Cl)[nH]c2cc1OCc1ccccc1`, the melting point lay within 192 to 194 °C. The same measure for `CC(C)(C)NC(=O)N1C(=O)C(C(=O)c2cccs2)c2ccc(Cl)cc21` (stereo not given): 160 to 162 °C; for `CCc1cccc(C)c1CNc1cc(C(=O)O)cn2c(C)nnc12`: 328 °C.
